Like-named read-outs stand apart in the source and are kept apart here.
Legend:
HPK1 = HPK1 (Homo sapiens, UniProt Q92918); assay: HPK1 Biochemical Assay (ADP-Glo luminescence; low ATP 10 μM or high ATP 200 μM)
[1] = test system: p-SLP-76 (Ser376) in Jurkat cells; assay: pSLP76 Cellular Assay (AlphaLISA SureFire Ultra p-SLP-76 (Ser376), anti-CD3 activated Jurkat cells); assay type: cell-based; conditions: Homo sapiens; Jurkat cells, anti-CD3 stimulation, pSLP76; read-out: Cellular Potency
In short: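 Jurkat cells, serum-starved overnight in Opti-MEM then in HBSS, preincubated 1 h at 37 °C with 22-point 2-fold compound dilutions, then stimulated with anti-CD3 (0.025 mg/ml added solution) for 45 min. Lysate p-SLP-76 (Ser376) measured by AlphaLISA at 570 nm; IC50 from 4-parameter logistic fit.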

[2] = 2 nM HPK1, 10 μM ATP, read-out: Biochemical Potency (low ATP)

HPK1, sequence (Q92918 whole entry, species assumed): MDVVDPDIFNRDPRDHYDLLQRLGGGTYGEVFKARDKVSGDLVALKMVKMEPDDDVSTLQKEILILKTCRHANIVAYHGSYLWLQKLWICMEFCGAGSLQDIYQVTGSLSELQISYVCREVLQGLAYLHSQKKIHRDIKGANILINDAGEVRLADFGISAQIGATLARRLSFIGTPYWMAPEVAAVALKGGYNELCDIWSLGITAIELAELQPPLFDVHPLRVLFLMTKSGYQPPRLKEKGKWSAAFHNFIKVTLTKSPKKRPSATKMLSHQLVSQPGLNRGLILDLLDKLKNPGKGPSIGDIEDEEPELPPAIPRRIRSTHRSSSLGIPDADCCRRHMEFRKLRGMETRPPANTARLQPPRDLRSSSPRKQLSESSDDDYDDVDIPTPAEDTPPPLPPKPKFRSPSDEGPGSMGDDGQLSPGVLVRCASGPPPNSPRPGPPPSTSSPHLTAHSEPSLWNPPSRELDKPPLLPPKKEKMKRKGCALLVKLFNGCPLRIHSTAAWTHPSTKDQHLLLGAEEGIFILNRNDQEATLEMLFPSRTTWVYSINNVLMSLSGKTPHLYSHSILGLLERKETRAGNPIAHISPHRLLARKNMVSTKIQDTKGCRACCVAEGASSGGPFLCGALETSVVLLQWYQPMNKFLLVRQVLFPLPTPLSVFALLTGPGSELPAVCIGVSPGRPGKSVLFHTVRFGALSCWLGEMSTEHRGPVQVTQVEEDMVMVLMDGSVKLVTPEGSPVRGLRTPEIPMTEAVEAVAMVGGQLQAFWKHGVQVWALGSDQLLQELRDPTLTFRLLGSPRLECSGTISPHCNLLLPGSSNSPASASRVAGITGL

**Q.** What does the source list for `c1cc(-c2nnco2)cc(-c2nc3cc(Nc4cccc(N5C[C@@H]6C[C@H]5CN6)n4)ncc3s2)c1` [Example 142, 6-[(1S,4S)-2,5-Diazabicyclo[2.2.1]heptan-2-yl]-N-{2-[3-(1,3,4-oxadiazol-2-yl)phenyl]-[1,3]thiazolo[5,4-c]pyridin-6-yl}pyridin-2-amine]?
**A.** IC50 (HPK1; [2]): < 100 nM; IC50 [1]: 1000 to 5000 nM

**Q.** With `Cc1cccnc1-c1nc2cc(Nc3cncc(N4C[C@@H]5C[C@H]4CN5)n3)ncc2s1` [Example 144, 6-[(1S,4S)-2,5-Diazabicyclo[2.2.1]heptan-2-yl]-N-[2-(3-methylpyridin-2-yl)-[1,3]thiazolo[5,4-c]pyridin-6-yl]pyrazin-2-amine] as the compound, how does the IC50 (HPK1; [2]) read?
**A.** < 100 nM

**Q.** What about the IC50 [1] of the same compound?
**A.** 100 to 1000 nM

**Q.** How did the IC50 (HPK1; [2]) turn out when `Cc1cccnc1-c1nc2cc(Nc3cncc(N4C[C@@H]5C[C@H]4CN5C)n3)ncc2s1` [Example 145, 6-[(1S,4S)-5-Methyl-2,5-diazabicyclo[2.2.1]heptan-2-yl]-N-[2-(3-methylpyridin-2-yl)-[1,3]thiazolo[5,4-c]pyridin-6-yl]pyrazin-2-amine] was run?
**A.** < 100 nM

**Q.** What about the IC50 [1] of the same compound?
**A.** 100 to 1000 nM

**Q.** Which results are given for `Cc1cccnc1-c1nc2cc(Nc3cnc(C)c(N4C[C@@H]5C[C@H]4CN5)n3)ncc2s1` [Example 148, 6-[(1S,4S)-2,5-Diazabicyclo[2.2.1]heptan-2-yl]-5-methyl-N-[2-(3-methylpyridin-2-yl)-[1,3]thiazolo[5,4-c]pyridin-6-yl]pyrazin-2-amine]?
**A.** IC50 (HPK1; [2]): < 100 nM; IC50 [1]: < 100 nM

**Q.** `Cc1cccnc1-c1nc2cc(Nc3ccnc(N4C[C@@H](N)C[C@H]4CO)n3)ncc2s1` [Example 155, [(2S,4S)-4-Mmino-1-(4-{[2-(3-methylpyridin-2-yl)-[1,3]thiazolo[5,4-c]pyridin-6-yl]amino}pyrimidin-2-yl)pyrrolidin-2-yl]methanol] was tested. Which IC50 (HPK1; [2]) did it give?
**A.** < 100 nM

**Q.** And the IC50 [1]?
**A.** 100 to 1000 nM

**Q.** With `CN1C[C@@H]2C[C@H]1CN2c1nccc(Nc2cc3nc(-c4ccncc4)sc3cn2)n1` [Example 159, 2-[(1S,4S)-5-Methyl-2,5-diazabicyclo[2.2.1]heptan-2-yl]-N-[2-(pyridin-4-yl)-[1,3]thiazolo[5,4-c]pyridin-6-yl]pyrimidin-4-amine] as the compound, how does the IC50 (HPK1; [2]) read?
**A.** < 100 nM

**Q.** And the IC50 [1]?
**A.** 100 to 1000 nM

**Q.** `Cc1cc(Nc2cc3nc(-c4ncccc4C)sc3cn2)nc(N2C[C@@H]3C[C@H]2CN3C)n1` [Example 160, 6-Methyl-2-[(1S,4S)-5-methyl-2,5-diazabicyclo[2.2.1]heptan-2-yl]-N-[2-(3-methylpyridin-2-yl)-[1,3]thiazolo[5,4-c]pyridin-6-yl]pyrimidin-4-amine] was tested. Which IC50 (HPK1; [2]) did it give?
**A.** < 100 nM

**Q.** What about the IC50 [1] of the same compound?
**A.** < 100 nM

**Q.** For `Cc1cc(Nc2cc3nc(-c4ncccc4C)sc3cn2)nc(O[C@H]2CCNC2)c1` [Example 164, 4-Methyl-N-[2-(3-methylpyridin-2-yl)-[1,3]thiazolo[5,4-c]pyridin-6-yl]-6-[(3S)-pyrrolidin-3-yloxy]pyridin-2-amine], which IC50 (HPK1; [2]) is on record?
**A.** < 100 nM

**Q.** And the IC50 [1]?
**A.** 100 to 1000 nM

**Q.** For `Cc1cc(Nc2cc3nc(-c4cccnc4)sc3cn2)nc(O[C@H]2CCNC2)c1` [Example 167, 4-Methyl-N-[2-(pyridin-3-yl)-[1,3]thiazolo[5,4-c]pyridin-6-yl]-6-[(3S)-pyrrolidin-3-yloxy]pyridin-2-amine], which IC50 (HPK1; [2]) is on record?
**A.** < 100 nM

**Q.** What about the IC50 [1] of the same compound?
**A.** < 100 nM

**Q.** How did the IC50 (HPK1; [2]) turn out when `Cc1cc(-c2nc3cc(Nc4ccc(C)c(O[C@H]5CCNC5)n4)ncc3s2)ccn1` [Example 172, 5-Methyl-N-[2-(2-methylpyridin-4-yl)-[1,3]thiazolo[5,4-c]pyridin-6-yl]-6-[(3S)-pyrrolidin-3-yloxy]pyridin-2-amine] was run?
**A.** < 100 nM

**Q.** And the IC50 [1]?
**A.** < 100 nM

**Q.** `Cc1cc(Nc2cc3nc(-c4c(F)cccc4F)sc3cn2)nc(O[C@H]2CCNC2)c1` [Example 175, N-[2-(2,6-Difluorophenyl)-[1,3]thiazolo[5,4-c]pyridin-6-yl]-4-methyl-6-[(3S)-pyrrolidin-3-yloxy]pyridin-2-amine] was tested. Which IC50 (HPK1; [2]) did it give?
**A.** < 100 nM

**Q.** What about the IC50 [1] of the same compound?
**A.** 100 to 1000 nM

**Q.** How did the IC50 (HPK1; [2]) turn out when `Cc1cc(Nc2cc3nc(-c4c(C)cccc4F)sc3cn2)nc(O[C@H]2CCNC2)c1` [Example 178, N-[2-(2-Fluoro-6-methylphenyl)-[1,3]thiazolo[5,4-c]pyridin-6-yl]-4-methyl-6-[(3S)-pyrrolidin-3-yloxy]pyridin-2-amine] was run?
**A.** < 100 nM

**Q.** And the IC50 [1]?
**A.** 100 to 1000 nM

**Q.** What does the source list for `Cc1ccc(Nc2cc3nc(-c4ccnn4C)sc3cn2)nc1O[C@H]1CCNC1` [Example 182, 5-Methyl-N-[2-(1-methyl-1H-pyrazol-5-yl)-[1,3]thiazolo[5,4-c]pyridin-6-yl]-6-[(3S)-pyrrolidin-3-yloxy]pyridin-2-amine]?
**A.** IC50 (HPK1; [2]): < 100 nM; IC50 [1]: 100 to 1000 nM

**Q.** Which results are given for `Cc1ccnn1-c1nc2cc(Nc3ccc(N4CCOCC4)c(CN4CCCC4)n3)ncc2s1` [Example 194, N-[2-(5-Methyl-1H-pyrazol-1-yl)-[1,3]thiazolo[5,4-c]pyridin-6-yl]-5-(morpholin-4-yl)-6-[(pyrrolidin-1-yl)methyl]pyridin-2-amine]?
**A.** IC50 (HPK1; [2]): < 100 nM; IC50 [1]: < 100 nM

**Q.** Which IC50 (HPK1; [2]) does the source give for `Cc1ccc(Nc2cc3nc(-n4nccc4C)sc3cn2)nc1CN1CCCC1` [Example 197, 5-Methyl-N-[2-(5-methyl-1H-pyrazol-1-yl)-[1,3]thiazolo[5,4-c]pyridin-6-yl]-6-[(pyrrolidin-1-yl)methyl]pyridin-2-amine] here?
**A.** < 100 nM

**Q.** And the IC50 [1]?
**A.** 100 to 1000 nM

**Q.** How did the IC50 (HPK1; [2]) turn out when `Cc1ccc(Nc2cc3nc(-n4nccc4C)sc3cn2)nc1CN[C@H]1CCOC1` [Example 198, 5-Methyl-N-[2-(5-methyl-1H-pyrazol-1-yl)-[1,3]thiazolo[5,4-c]pyridin-6-yl]-6-({[(3S)-oxolan-3-yl]amino}methyl)pyridin-2-amine] was run?
**A.** < 100 nM

**Q.** And the IC50 [1]?
**A.** > 5000 nM

**Q.** `Cc1ccc(Nc2cc3nc(-n4cccn4)sc3cn2)nc1CN1CCCC1` [Example 200, 5-Methyl-N-[2-(1H-pyrazol-1-yl)-[1,3]thiazolo[5,4-c]pyridin-6-yl]-6-[(pyrrolidin-1-yl)methyl]pyridin-2-amine] was tested. Which IC50 (HPK1; [2]) did it give?
**A.** < 100 nM

**Q.** And the IC50 [1]?
**A.** 1000 to 5000 nM

**Q.** Which results are given for `Cc1ccnn1-c1nc2cc(Nc3cccc(N4C[C@@H]5C[C@H]4CN5C)n3)ncc2s1` [Example 205, N-[2-(5-Methyl-1H-pyrazol-1-yl)-[1,3]thiazolo[5,4-c]pyridin-6-yl]-6-[(1S,4S)-5-methyl-2,5-diazabicyclo[2.2.1]heptan-2-yl]pyridin-2-amine]?
**A.** IC50 (HPK1; [2]): < 100 nM; IC50 (HPK1; 5 nM HPK1, 200 μM ATP, read-out: Biochemical Potency (high ATP)): < 100 nM; IC50 [1]: 100 to 1000 nM

**Q.** Which IC50 (HPK1; [2]) does the source give for `CN1C[C@@H]2C[C@H]1CN2c1cccc(Nc2cc3nc(-n4cccn4)sc3cn2)n1` [Example 206, 6-[(1S,4S)-5-Methyl-2,5-diazabicyclo[2.2.1]heptan-2-yl]-N-[2-(1H-pyrazol-1-yl)-[1,3]thiazolo[5,4-c]pyridin-6-yl]pyridin-2-amine] here?
**A.** < 100 nM

**Q.** What about the IC50 [1] of the same compound?
**A.** 100 to 1000 nM

**Q.** What does the source list for `Cc1ccnn1-c1nc2cc(Nc3ccc(C4CCOCC4)c(CN[C@H]4CCOC4)n3)ncc2s1` [Example 209, N-[2-(5-Methyl-1H-pyrazol-1-yl)-[1,3]thiazolo[5,4-c]pyridin-6-yl]-5-(oxan-4-yl)-6-({[(3S)-oxolan-3-yl]amino}methyl)pyridin-2-amine]?
**A.** IC50 (HPK1; [2]): < 100 nM; IC50 [1]: 1000 to 5000 nM

**Q.** `c1cnn(-c2nc3cc(Nc4ccc(C5CCOCC5)c(CN5CCCC5)n4)ncc3s2)c1` [Example 210, 5-(Oxan-4-yl)-N-[2-(1H-pyrazol-1-yl)-[1,3]thiazolo[5,4-c]pyridin-6-yl]-6-[(pyrrolidin-1-yl)methyl]pyridin-2-amine] was tested. Which IC50 (HPK1; [2]) did it give?
**A.** < 100 nM

**Q.** And the IC50 [1]?
**A.** 100 to 1000 nM
